From patent US12297194B2, “N2-phenylpyrimidine-2,4-diamine compounds, and preparation methods and methods of use thereof” (BRIDGE BIOTHERAPEUTICS, INC., priority 2021, dated 2025)

What was measured:
Format in all cases: cell-based, murine
[1] = molecular target: Ba/F3 EGFR Del19/T790M/C797S mutants (Homo sapiens, UniProt P00533, T790M/C797S, cells depend on it, form not given); assay: CellTiter-Glo cell viability, Ba/F3 EGFR Del19/T790M/C797S cells; details: 72 hours, read-out: Ba/F3 EGFR mutant cell (IC50, nM) D/T/C
Sequence of Ba/F3 EGFR Del19/T790M/C797S mutants (P00533 with tags, fused parts or gaps DEL746-750/T790M/C797S, form open): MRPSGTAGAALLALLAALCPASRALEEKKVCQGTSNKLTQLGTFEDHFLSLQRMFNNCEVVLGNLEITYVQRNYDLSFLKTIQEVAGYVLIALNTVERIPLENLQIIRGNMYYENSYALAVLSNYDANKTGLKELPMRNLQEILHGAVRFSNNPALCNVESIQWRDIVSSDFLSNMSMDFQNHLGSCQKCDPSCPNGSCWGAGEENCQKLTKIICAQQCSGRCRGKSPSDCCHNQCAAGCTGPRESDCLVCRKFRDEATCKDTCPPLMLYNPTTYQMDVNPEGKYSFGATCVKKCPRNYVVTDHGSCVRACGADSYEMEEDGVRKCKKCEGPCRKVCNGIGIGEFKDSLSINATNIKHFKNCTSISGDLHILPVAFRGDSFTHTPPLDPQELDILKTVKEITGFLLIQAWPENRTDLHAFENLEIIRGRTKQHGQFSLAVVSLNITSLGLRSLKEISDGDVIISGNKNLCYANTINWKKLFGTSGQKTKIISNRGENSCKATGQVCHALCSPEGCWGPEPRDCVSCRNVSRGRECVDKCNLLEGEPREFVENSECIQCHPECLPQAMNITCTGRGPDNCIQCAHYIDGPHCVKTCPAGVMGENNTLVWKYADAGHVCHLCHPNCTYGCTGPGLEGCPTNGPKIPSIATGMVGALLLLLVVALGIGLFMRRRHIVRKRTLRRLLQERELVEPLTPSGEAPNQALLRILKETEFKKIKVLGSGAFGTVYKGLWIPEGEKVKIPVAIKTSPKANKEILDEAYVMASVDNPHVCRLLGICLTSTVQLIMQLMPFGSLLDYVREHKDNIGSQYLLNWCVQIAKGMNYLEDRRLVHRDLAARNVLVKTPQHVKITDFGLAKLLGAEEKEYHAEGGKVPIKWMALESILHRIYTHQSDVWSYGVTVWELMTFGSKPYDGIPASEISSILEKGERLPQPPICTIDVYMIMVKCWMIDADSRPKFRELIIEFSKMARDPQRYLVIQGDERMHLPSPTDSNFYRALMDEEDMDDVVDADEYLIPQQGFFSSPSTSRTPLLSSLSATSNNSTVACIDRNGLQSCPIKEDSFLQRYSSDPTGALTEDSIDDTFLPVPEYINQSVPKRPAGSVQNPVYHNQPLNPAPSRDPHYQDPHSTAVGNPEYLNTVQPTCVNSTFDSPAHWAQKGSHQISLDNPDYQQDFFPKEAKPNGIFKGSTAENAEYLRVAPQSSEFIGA
Procedure, shortened: (§1)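 IC50 values derive from CellTiter-Glo luminescence measured after 72 hours of treatment of EGFR-dependent Ba/F3 cells, dosed at concentrations up to 2000 nM starting 24 hours after seeding.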

[2] = molecular target: Ba/F3 EGFR Wild-type (Homo sapiens, UniProt P00533); assay: CellTiter-Glo cell viability, Ba/F3 EGFR wild-type cells; details: 72 hours, read-out: Ba/F3 EGFR mutant cell (IC50, nM) WT
Sequence of Ba/F3 EGFR Wild-type (P00533 whole entry, change not shown): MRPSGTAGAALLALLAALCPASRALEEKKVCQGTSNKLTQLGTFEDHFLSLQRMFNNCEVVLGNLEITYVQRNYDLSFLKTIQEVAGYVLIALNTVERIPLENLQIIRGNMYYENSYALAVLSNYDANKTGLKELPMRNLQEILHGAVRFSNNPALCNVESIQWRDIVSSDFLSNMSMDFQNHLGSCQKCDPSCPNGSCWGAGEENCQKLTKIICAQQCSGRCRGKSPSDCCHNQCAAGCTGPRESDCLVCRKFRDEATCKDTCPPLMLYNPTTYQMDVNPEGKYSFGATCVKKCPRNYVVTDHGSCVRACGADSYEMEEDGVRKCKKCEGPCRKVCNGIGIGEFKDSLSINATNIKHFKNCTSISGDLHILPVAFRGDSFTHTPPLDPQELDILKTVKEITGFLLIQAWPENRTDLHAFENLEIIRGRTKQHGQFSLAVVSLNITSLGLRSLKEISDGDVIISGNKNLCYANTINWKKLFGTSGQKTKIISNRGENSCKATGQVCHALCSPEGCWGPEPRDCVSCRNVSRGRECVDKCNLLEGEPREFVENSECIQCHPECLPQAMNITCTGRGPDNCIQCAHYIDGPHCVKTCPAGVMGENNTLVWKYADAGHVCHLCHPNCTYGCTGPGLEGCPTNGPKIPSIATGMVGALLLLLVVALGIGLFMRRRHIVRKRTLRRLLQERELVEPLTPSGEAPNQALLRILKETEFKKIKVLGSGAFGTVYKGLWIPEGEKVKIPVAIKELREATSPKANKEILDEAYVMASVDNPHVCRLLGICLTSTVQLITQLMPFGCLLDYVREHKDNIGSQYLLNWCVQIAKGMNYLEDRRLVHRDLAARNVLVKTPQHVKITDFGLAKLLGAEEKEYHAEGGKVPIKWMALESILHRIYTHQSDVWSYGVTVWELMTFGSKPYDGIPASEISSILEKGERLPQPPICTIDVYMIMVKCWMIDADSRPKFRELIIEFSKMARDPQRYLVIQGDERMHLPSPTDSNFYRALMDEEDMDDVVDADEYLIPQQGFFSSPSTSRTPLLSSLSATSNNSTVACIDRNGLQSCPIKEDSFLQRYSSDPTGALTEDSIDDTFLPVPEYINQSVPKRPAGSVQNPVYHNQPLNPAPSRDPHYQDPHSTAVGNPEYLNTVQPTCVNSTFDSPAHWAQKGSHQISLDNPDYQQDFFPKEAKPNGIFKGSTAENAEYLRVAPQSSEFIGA
Procedure, shortened: as §1

[3] = molecular target: Ba/F3 EGFR L858R/T790M/C797S mutants (Homo sapiens, UniProt P00533, T790M/C797S/L858R, cells depend on it); assay: CellTiter-Glo cell viability, Ba/F3 EGFR L858R/T790M/C797S cells; details: 72 hours, read-out: Ba/F3 EGFR mutant cell (IC50, nM) L/T/C
Procedure, shortened: as §1

[4] = molecular target: Ba/F3 EGFR Del19/T790M mutants (Homo sapiens, UniProt P00533, T790M, cells depend on it, form not given); assay: CellTiter-Glo cell viability, Ba/F3 EGFR Del19/T790M cells; details: 72 hours, read-out: Ba/F3 EGFR mutant cell (IC50, nM) D/T
Sequence of Ba/F3 EGFR Del19/T790M mutants (P00533 with tags, fused parts or gaps DEL746-750/T790M, form open): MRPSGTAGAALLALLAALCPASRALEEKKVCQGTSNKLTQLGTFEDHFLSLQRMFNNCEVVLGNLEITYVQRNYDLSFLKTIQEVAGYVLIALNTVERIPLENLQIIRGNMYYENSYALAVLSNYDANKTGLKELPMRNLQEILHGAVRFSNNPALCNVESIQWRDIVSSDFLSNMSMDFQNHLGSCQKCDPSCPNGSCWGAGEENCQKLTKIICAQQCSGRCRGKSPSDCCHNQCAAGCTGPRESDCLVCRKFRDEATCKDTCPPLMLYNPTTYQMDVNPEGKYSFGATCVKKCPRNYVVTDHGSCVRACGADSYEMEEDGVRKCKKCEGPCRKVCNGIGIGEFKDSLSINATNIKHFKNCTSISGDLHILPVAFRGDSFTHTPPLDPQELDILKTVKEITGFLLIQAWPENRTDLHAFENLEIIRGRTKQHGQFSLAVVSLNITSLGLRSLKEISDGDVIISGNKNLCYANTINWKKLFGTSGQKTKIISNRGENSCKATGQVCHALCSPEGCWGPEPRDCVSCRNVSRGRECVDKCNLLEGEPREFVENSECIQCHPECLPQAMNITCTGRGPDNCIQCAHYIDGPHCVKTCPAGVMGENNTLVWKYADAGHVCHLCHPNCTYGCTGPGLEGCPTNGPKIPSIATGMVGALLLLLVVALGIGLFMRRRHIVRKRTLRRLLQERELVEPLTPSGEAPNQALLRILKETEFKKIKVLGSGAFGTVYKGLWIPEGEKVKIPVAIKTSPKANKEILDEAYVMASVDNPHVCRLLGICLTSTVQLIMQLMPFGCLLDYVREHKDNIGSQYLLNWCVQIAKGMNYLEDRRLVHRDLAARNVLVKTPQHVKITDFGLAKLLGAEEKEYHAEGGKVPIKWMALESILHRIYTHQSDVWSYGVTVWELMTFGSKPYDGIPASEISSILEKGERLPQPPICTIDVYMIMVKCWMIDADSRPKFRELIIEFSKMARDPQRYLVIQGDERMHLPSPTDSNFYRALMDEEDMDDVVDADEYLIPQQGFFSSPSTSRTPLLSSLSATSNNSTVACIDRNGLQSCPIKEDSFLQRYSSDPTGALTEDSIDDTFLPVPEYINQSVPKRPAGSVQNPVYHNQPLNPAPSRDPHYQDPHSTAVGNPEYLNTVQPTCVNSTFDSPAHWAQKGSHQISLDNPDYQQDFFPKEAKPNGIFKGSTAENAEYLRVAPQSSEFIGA
Procedure, shortened: as §1

[5] = molecular target: Ba/F3 EGFR L858R/C797S mutants (Homo sapiens, UniProt P00533, C797S/L858R, cells depend on it); assay: CellTiter-Glo cell viability, Ba/F3 EGFR L858R/C797S cells; details: 72 hours, read-out: Ba/F3 EGFR mutant cell (IC50, nM) L/C
Sequence of Ba/F3 EGFR L858R/C797S mutants (P00533 whole entry C797S/L858R): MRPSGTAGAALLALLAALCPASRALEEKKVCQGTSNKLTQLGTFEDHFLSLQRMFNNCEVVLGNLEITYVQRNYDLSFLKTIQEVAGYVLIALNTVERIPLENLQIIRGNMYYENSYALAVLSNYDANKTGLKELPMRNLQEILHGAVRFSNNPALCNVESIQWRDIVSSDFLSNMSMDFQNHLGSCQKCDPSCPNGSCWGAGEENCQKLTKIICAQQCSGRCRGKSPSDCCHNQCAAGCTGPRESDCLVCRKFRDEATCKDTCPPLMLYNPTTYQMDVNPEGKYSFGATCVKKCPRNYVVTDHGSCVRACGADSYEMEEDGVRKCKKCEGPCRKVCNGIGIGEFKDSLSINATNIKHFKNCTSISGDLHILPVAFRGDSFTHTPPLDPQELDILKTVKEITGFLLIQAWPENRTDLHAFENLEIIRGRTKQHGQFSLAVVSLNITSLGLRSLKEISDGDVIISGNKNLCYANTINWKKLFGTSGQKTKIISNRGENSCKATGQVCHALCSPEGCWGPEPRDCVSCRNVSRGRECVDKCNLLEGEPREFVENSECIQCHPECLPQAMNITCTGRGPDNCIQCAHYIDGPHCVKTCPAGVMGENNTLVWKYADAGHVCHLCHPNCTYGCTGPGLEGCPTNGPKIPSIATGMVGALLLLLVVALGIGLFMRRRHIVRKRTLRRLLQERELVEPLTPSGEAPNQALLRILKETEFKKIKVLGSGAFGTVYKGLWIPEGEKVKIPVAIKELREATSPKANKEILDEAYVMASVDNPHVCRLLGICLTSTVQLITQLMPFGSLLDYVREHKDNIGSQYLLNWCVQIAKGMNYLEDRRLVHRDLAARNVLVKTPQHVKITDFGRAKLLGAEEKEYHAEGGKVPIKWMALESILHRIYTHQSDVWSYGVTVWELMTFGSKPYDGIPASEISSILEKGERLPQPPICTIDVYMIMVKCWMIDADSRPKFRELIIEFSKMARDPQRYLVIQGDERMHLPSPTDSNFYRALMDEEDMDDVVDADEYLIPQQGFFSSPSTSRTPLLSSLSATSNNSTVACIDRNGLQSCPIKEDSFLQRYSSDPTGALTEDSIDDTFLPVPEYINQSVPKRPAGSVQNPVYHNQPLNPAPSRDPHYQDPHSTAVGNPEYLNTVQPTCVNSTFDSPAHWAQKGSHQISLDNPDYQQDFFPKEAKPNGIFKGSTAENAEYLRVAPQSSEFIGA
Procedure, shortened: as §1

[6] = molecular target: Ba/F3 EGFR Del19/C797S mutants (Homo sapiens, UniProt P00533, C797S, cells depend on it, form not given); assay: CellTiter-Glo cell viability, Ba/F3 EGFR Del19/C797S cells; details: 72 hours, read-out: Ba/F3 EGFR mutant cell (IC50, nM) D/C
Procedure, shortened: as §1

SMILES | GI50 [1] [nM] | GI50 [2] [nM] | GI50 [3] [nM] | GI50 [4] [nM] | GI50 [5] [nM] | GI50 [6] [nM]
COc1cc(N2CCC(N3CCCC3)CC2)c(C)cc1Nc1ncc(Cl)c(Nc2ccc3c(c2NS(C)(=O)=O)OCCO3)n1 [Example C27, N-(6-((5-chloro-2-((2-methoxy-5-methyl-4-(4-(pyrrolidin-1-yl)piperidin-1-yl)phenyl)amino)pyrimidin-4-yl)amino)-2,3-dihydrobenzo[b][1,4]dioxin-5-yl)methanesulfonamide] | 15 | 565 | 48 | 16 | 43 | 10
COc1ccc(Nc2nc(Nc3cc(C)c(N4CCC(N5CCN(C)CC5)CC4)cc3OC)ncc2Br)c(NS(C)(=O)=O)c1 [Example C2, N-(2-((5-bromo-2-((2-methoxy-5-methyl-4-(4-(4-methylpiperazin-1-yl)piperidin-1-yl)phenyl)amino)pyrimidin-4-yl)amino)-5-methoxyphenyl)methanesulfonamide] | 9 | 385 | 18 | 3 | 32 | 13
COc1cc(C2CCNCC2)ccc1Nc1ncc(Br)c(Nc2ccc3nccnc3c2NS(C)(=O)=O)n1 [Example B18, N-(6-((5-bromo-2-((2-methoxy-4-(piperidin-4-yl)phenyl)amino)pyrimidin-4-yl)amino)quinoxalin-5-yl)methanesulfonamide] | 818 | > 2000 | 1440 | 598 | 1020 | 725
COc1ccc(Nc2nc(Nc3cc(C)c(N4CCC(N(C)C)CC4)cc3OC)ncc2Cl)c(NS(C)(=O)=O)c1 [Example C4, N-(2-((5-chloro-2-((4-(4-(dimethylamino)piperidin-1-yl)-2-methoxy-5-methylphenyl)amino)pyrimidin-4-yl)amino)-5-methoxyphenyl)methanesulfonamide] | 132 | 263 | 38 | 30 | 91 | 31
